Experimental data reported in patent US20140004223A1, “MOUTH-MOISTENING GUM COMPOSITIONS AND PRODUCTS CONTAINING THE SAME” (Three Parkway North, priority 2010, published 2014).

Experiments:
water solubility = assay type: physicochemical
Text: In some embodiments, one or more ingredients may be encapsulated with an encapsulating material can also modify the release profile of the ingredient.

[1] = taste testing of synthetic compound versus plant extracts; assay type: in vivo; details: based on taste testing, compared with some comparable plant extracts
Text: Synthetic (2E,5Z,8E)-deca-2,6,8-trienoic acid N-isobutyl amide, being more pure than botanical sources, can be distinguished to some extent based on taste sensations. Synthetic (2E,5Z,8E)-deca-2,6,8-trienoic acid N-isobutyl amide can have a purity of at least about 90 percent. In some embodiments, synthetic (2E,5Z,8E)-deca-2,6,8-trienoic acid N-isobutyl amide can provide relatively higher mouth-moistening relative to tingling or heating/cooling sensations, compared to, for example, equivalent amounts of spilanthol in jambu. […] In one embodiment a combination of synthetic (2E,5Z,8E)-deca-2,6,8-trienoic acid N-isobutyl amide and a affinin plant extract is used. For example, within the given range of 75 to 300 ppm the affinin compound, the amount of affinin active provided by synthetic (2E,5Z,8E)-deca-2,6,8-trienoic acid N-isobutyl amide can vary from 20 to 80 wt. % and the amount of (2E,5Z,8E)-deca-2,6,8-trienoic acid N-isobutyl amide provided by plant extract of Heliopsis Longipes can vary from 80 to 20 wt. %.

C/C=C/C=C\CC/C=C/C(=O)NCC(C)C [affinin compound, (2E,5Z,8E)-deca-2,6,8-trienoic acid N-isobutyl amide]
water solubility (water solubility): not water soluble
taste profile / tingling [1]: a cleaner profile and/or less tingling
